Measured values as given in PMC7435868, “Structure-Based Virtual Screening, Synthesis and Biological Evaluation of Potential FAK-FAT Domain Inhibitors for Treatment of Metastatic Cancer” (Molecules, 2020).
Where a name gives a salt, the structure may show the parent alone. Read-outs that look alike come from different tables or passages of the source.

How the values were obtained:
MDA-MB-231 = assay: Cell viability assay (CellTiter Glo), MDA-MB-231; assay type: cell-based; conditions: Homo sapiens, 72 h incubation, mean of independent triplicate experiments, read-out: In vitro anti-proliferative activity IC50, MDA-MB-231 ER- PR- HER-
Protocol: (§1) The antiproliferative activity of compound I as well as its newly synthesised analogues (5a–i) was evaluated in vitro against the three human breast cancer cell lines MDA-MB-231 (TNBC), T47D (ER^+, HER^−), and BT474 (ER^+, HER^+) as well as a human pancreatic cancer cell line MIAPaCa2. The seeding of the corresponding cell lines started one day before incubation, which lasted for 72 h with the different concentrations of the tested compounds. CellTiter Glo reagent (25 μL) was added to the cell plate. The luminescence was analysed after 10 min using a PerkinElmer Envision instrument. The test compounds were used at ten different triplicate concentrations in half log increments up to 100 μM.

T47D = assay: Cell viability assay (CellTiter Glo), T47D; assay type: cell-based, human; conditions: 72 h incubation, mean of independent triplicate experiments, read-out: In vitro anti-proliferative activity IC50, T47D ER+ PR+/- HER-
Protocol: as §1

BT474 = assay: Cell viability assay (CellTiter Glo), BT474; assay type: cell-based, human; conditions: 72 h incubation, mean of independent triplicate experiments, read-out: In vitro anti-proliferative activity IC50, BT474 ER+ PR+/- HER+
Protocol: as §1

MIAPaCa2 = assay: Cell viability assay (CellTiter Glo), MIAPaCa2; assay type: cell-based; conditions: Homo sapiens, MIA PaCa-2, 72 h incubation, mean of independent triplicate experiments, read-out: In vitro anti-proliferative activity IC50, MIAPaCa2
Protocol: as §1

[1] = tested on: MDA-MB-231, T47D, BT474, and MIAPaCa2; assay: Cell viability assay, statements across the four cell lines; assay type: cell-based, human; conditions: for Anti-proliferative activity (in words) across the four cell lines: three human breast and one pancreatic cancer cell line, up to 100 μM
Protocol: as §1

[2] = set-up: method as in PMID 19610651, PMID 24780592; conditions: cited from earlier work
[3] = Turbidimetric aqueous solubility; assay type: physicochemical; conditions: 37 °C, 2 h; for Estimated Precipitation Range, Calculated Mid-Range / Estimated Precipitation Range, Lower Bound / Estimated Precipitation Range, Upper Bound: buffered aqueous solution (PBS pH 7.4, 1% DMSO); for Aqueous solubility (in words): turbidimetric
Protocol: Both the estimated precipitation range (lower and upper bound) and a mid-range value were measured. Nicardipine and pyrene were used as control compounds.
The test compound was diluted in buffer to give a range of concentrations (1, 3, 10, 30, and 100 μM; final DMSO concentration 1%) and incubated at 37 °C for 2 hr.
The test compound (10 mM in DMSO) was serially diluted to give solutions of 0.1, 0.3, 1, and 3 mM in DMSO. Each test compound concentration was then further diluted 1 to 100 in buffer (typically 0.01 M phosphate buffered saline pH 7.4) so that the final DMSO concentration was 1%, and the final test compound concentrations were 1, 3, 10, 30, and 100 μM. The experiment was performed at 37 °C and each concentration was incubated in 7 replicate wells. The plates were incubated for 2 h at 37 °C before the absorbance was measured at 620 nm. Nicardipine and pyrene were included as control compounds. The solubility of nicardipine is pH dependent whereas the solubility of pyrene is pH independent.
An estimated precipitation range (lower and upper bound) and a calculated mid-range value were returned, along with any relevant comments, in the form of an Excel spreadsheet.

[4] = Microsomal metabolic stability; conditions: for Compound Remaining (% of 0 min), 0 min / Compound Remaining (% of 0 min), 5 min / Compound Remaining (% of 0 min), 15 min / Compound Remaining (% of 0 min), 30 min / Compound Remaining (% of 0 min), 45 min / Compound Remaining (% of 0 min), Control: human liver microsomes; for Compound Remaining (% of 0 min), Control: minus NADPH control; for Compound Remaining (% of 0 min), 45 min / Compound Remaining (% of 0 min), Control: 45 min; for half-life at 3 μM / microsomal CLint at 3 μM: human, pH 7.4
Protocol: Half-life (t1/2) values were measured at five time points.
Intrinsic clearance values (CLint) with standard error and t1⁄2 values were measured.
The final incubation volume was 50 μL. A minus cofactor control incubation was included for each compound tested where 0.1 M phosphate buffer pH 7.4 was added instead of NADPH (minus NADPH). Two control compounds were included with each species. All incubations were performed singularly for each test compound.
The reactions were stopped by transferring 20 μL of incubate to 60 μL methanol at the appropriate time points. The termination plates were centrifuged at 2500 rpm for 20 min at 4 °C to precipitate the protein.
Following protein precipitation, the sample supernatants were combined in cassettes of up to 4 compounds, the internal standard was added, and samples were analysed using Cyprotex generic LC-MS/MS conditions.
From a plot of ln peak area ratio (compound peak area/internal standard peak area) against time, the gradient of the line was determined.

hERG potassium channel = hERG potassium channel (Homo sapiens, UniProt Q12809); assay: hERG channel inhibition (IonWorks automated patch clamp, CHO-hERG cells)
hERG potassium channel, sequence (Q12809 whole entry): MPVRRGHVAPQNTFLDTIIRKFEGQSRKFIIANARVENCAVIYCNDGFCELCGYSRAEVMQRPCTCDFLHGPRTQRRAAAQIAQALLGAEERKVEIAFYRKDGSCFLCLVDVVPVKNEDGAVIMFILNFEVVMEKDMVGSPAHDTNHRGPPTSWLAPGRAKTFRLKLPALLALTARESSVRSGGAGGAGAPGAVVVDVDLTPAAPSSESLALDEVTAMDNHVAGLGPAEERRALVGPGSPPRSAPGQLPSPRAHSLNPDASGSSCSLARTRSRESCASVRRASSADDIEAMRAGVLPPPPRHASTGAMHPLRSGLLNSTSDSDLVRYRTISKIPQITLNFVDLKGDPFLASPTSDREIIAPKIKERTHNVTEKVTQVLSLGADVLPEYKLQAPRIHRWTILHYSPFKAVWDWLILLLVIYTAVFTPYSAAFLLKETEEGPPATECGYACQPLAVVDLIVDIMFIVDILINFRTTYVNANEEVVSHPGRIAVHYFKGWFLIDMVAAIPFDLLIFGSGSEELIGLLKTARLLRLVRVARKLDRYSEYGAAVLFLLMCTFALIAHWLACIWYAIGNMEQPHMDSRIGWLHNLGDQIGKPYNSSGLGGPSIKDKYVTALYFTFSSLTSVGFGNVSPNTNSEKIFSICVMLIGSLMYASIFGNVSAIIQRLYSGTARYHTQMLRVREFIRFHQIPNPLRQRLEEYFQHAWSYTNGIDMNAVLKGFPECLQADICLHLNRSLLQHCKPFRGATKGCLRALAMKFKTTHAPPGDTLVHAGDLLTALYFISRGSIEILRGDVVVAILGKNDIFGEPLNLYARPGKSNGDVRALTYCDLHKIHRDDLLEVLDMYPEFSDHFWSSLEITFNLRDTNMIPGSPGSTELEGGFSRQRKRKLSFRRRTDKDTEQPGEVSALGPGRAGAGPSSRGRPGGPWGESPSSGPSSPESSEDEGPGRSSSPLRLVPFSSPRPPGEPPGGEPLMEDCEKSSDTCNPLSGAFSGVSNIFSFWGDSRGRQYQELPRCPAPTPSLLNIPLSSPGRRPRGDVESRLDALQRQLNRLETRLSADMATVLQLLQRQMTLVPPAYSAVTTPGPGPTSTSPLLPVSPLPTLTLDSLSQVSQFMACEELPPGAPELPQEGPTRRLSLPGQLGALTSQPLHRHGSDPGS
Protocol: Mammalian cells expressing the hERG potassium channel were dispensed into 384-well planar arrays and hERG tail-currents measured by whole-cell voltage-clamping. A range of concentrations of the test compound was then added to the cells and a second recording of the hERG current was made. […] IC50 is delivered, standard error (SE IC50), and n (number of data points used to calculate IC50) for the test compound. The experiments were performed on an Ion Works TM automated patch clamp instrument (Molecular Devices LLC (San Jose, California, United States)), which simultaneously performs electrophysiology measurements for 48 single cells in a specialised 384-well plate (PatchPlateTM(manufacturer, city, state if USA or Canada, country)). All cell suspensions, buffers, and test compound solutions were at room temperature during the experiment.
The cells used were Chinese hamster ovary (CHO) cells stably transfected with hERG (cell-line obtained from Cytomyx, UK). A single-cell suspension was prepared in extracellular solution (Dulbecco’s phosphate buffered saline with calcium and magnesium pH 7.2) and aliquots added automatically to each well of a Patch Plate TM. The cells were then positioned over a small hole at the bottom of each well by applying a vacuum beneath the plate to form an electrical seal. The vacuum was applied through a single compartment common to all wells which was filled with intracellular solution (buffered to pH 7.2 with HEPES). The resistance of each seal was measured via a common ground-electrode in the intracellular compartment and individual electrodes placed into each of the upper wells.
Electrical access to the cell was then achieved by circulating a perforating agent, amphotericin B, underneath the PatchPlateTM. The pre-compound hERG current was then measured. An electrode was positioned in the extracellular compartment and a holding potential of −80 mV applied for 15 s. The hERG channels were then activated by applying a depolarising step to +40 mV for 5 s and then clamped at −50 mV for 4 s to elicit the hERG tail current, before returning to −80 mV for 0.3 s.
The Ion Works TM instrument automatically adds test compound dilutions to the upper wells of the PatchPlateTM. The test compound was left in contact with the cells for 300 s before recording currents using the same voltage-step protocol as in the pre-compound scan.
Each concentration was tested in 4 replicate wells on the PatchPlateTM (maximum of 24 data points). Filters were applied to ensure only acceptable cells were used to assess hERG inhibition.
For each replicate, the hERG response was calculated using the following equation:% hERG response = [Post-compound current (nA)/Pre-compound current (nA)] × 100(5)

| SMILES | IC50 (MDA-MB-231) [µM] | IC50 (T47D; Homo sapiens, T47D, 72 h) [µM] | IC50 (BT474; Homo sapiens, BT-474, 72 h) [µM] | IC50 (MIAPaCa2) [µM] | Estimated Precipitation Range, Calculated Mid-Range [3] [µM] | Estimated Precipitation Range, Lower Bound [3] [µM] | Estimated Precipitation Range, Upper Bound [3] [µM] | Aqueous solubility (in words) [3] | Compound Remaining (% of 0 min), 0 min [4] | Compound Remaining (% of 0 min), 5 min [4] | Compound Remaining (% of 0 min), 15 min [4] | Compound Remaining (% of 0 min), 30 min [4] | Compound Remaining (% of 0 min), 45 min [4] | Compound Remaining (% of 0 min), Control [4] | microsomal CLint at 3 μM ([4]; pooled liver microsomes) [µL/min/mg] | half-life at 3 μM ([4]; pooled liver microsomes) [h] | other results |
| --- | --- | --- | --- | --- | --- | --- | --- | --- | --- | --- | --- | --- | --- | --- | --- | --- | --- |
| CN(C)CCN(Cc1ccc(Cl)cc1)c1ccccn1 [C4, chloropyramine hydrochloride, reference compound] | 99 | > 100 | > 100 | > 100 |  |  |  |  |  |  |  |  |  |  |  |  | Anti-proliferative activity (in words) across the four cell lines [1]: did not show any significant anti-proliferative activity up to a concentration of 100 μM; Concentration at which anticancer activity is displayed [2]: > 100 µM |
| c1cc2ccc3cccc4ccc(c1)c2c34 [pyrene, reference compound] |  |  |  |  | 6.5 | 3 | 10 |  |  |  |  |  |  |  |  |  |  |
| CC(C)(C)c1ccc(C(CN)c2ccccc2F)cc1 (centres unmarked) [5d, 2-(4-tert-butylphenyl)-2-(2-fluorophenyl)ethan-1-aminium chloride] | 14.8 | 14.7 | 14.8 | 15.8 |  |  |  |  |  |  |  |  |  |  |  |  |  |
| CC(C)(C)c1ccc(C(CN)c2cccc(F)c2)cc1 (centres unmarked) [5e, 2-(4-tert-butylphenyl)-2-(3-fluorophenyl)ethan-1-aminium chloride] | 14.1 | 14.4 | 15 | 17 |  |  |  |  |  |  |  |  |  |  |  |  |  |
| CC(C)(C)c1ccc(C(CN)c2ccc(C(C)(C)C)cc2)cc1.Cl [5f, 2,2-Bis(4-tert-butylphenyl)ethan-1-aminium chloride] | 5.06 | 4.7 | 4.59 | 5.28 | 3.75 | 1 | 6.5 | relatively reduced solubility comparable to pyrene | 100 % of 0 min | 97.2 % of 0 min | 92.2 % of 0 min | 88.0 % of 0 min | 80.7 % of 0 min | 88.0 % of 0 min | 9.34 |  | IC50 (T47D): 4.59 µM; IC50 (BT474): 4.7 µM; half-life at 3 μM ([4]; microsomes): 2.47 h; IC50 ([1]; Homo sapiens, MDA-MB-231, T47D, BT474, and MIAPaCa2, read-out: IC50 values range across cell lines): 4.59 to 5.28 µM; Anti-proliferative activity (in words) across the four cell lines [1]: low micromolar antiproliferative activity; IC50 (hERG potassium channel): > 25 µM |
| CC(C)(C)c1ccc(C(CN)c2ccc(SC(F)(F)F)cc2)cc1.Cl (centres unmarked) [5b, 2-(4-tert-butylphenyl)-2-(4-(trifluoromethyl)thiophenyl)ethan-1-aminium chloride] | 11.8 | 11.4 | 12.5 | 15.7 | 11.5 | 3 | 20 | relatively reduced solubility comparable to pyrene |  |  |  |  |  |  |  |  |  |
| Cl.NCC(c1ccc(Cl)cc1)c1ccc(OC(F)(F)F)cc1 (centres unmarked) [5g, 2-(4-chlorophenyl)-2-(4-trifluoromethoxyphenyl)ethan-1-aminium chloride] | 16.9 | 15.3 | 15.5 | 45.3 |  |  |  |  | 100 % of 0 min | 99.0 % of 0 min | 96.2 % of 0 min | 86.8 % of 0 min | 72.8 % of 0 min | 86.6 % of 0 min | 13.9 | 1.67 |  |
| COc1ccc(C(CN)c2ccc(OC)cc2)cc1 [5i, 2,2-Bis(4-methoxyphenyl)ethan-1-aminium chloride] | 46.2 | 43.9 | 44.5 | 49 |  |  |  |  |  |  |  |  |  |  |  |  | IC50 (hERG potassium channel): 6.01 µM |
| COC(=O)C1=C(C)NC(C)=C(C(=O)OCCN(C)Cc2ccccc2)C1c1cccc([N+](=O)[O-])c1 (centres unmarked) [nicardipine, reference compound] |  |  |  |  |  |  | 30 |  |  |  |  |  |  |  |  |  |  |
| CC(C)(C)c1ccc(C(CN)c2ccc(OC(F)(F)F)cc2)cc1 (centres unmarked) [5a, 2-(4-tert-butylphenyl)-2-(4-trifluoromethoxyphenyl)ethan-1-aminium hydrochloride] | 5.63 | 4.94 | 5 | 5.51 | 65 | 30 | 100 | moderate solubility | 100 % of 0 min | 95.8 % of 0 min | 92.3 % of 0 min | 86.0 % of 0 min | 81.4 % of 0 min | 91.0 % of 0 min | 8.91 | 2.6 | IC50 (hERG potassium channel): 3.59 µM |
| CC(C)(C)c1ccc(C(CN)c2ccc(F)cc2)cc1.Cl (centres unmarked) [5c, 2-(4-tert-butylphenyl)-2-(4-fluorophenyl)ethan-1-aminium chloride] | 12.8 | 13.4 | 8.94 | 15.1 | >100 | 100 | >100 | high aqueous solubility | 100 % of 0 min | 94.7 % of 0 min | 95.0 % of 0 min | 86.1 % of 0 min | 82.5 % of 0 min | 98.0 % of 0 min | 8.26 | 2.8 |  |
| Cl.NCC(c1ccc(OC(F)(F)F)cc1)c1ccc(OC(F)(F)F)cc1 [5h, 2,2-Bis(4-trifluoromethoxyphenyl)ethan-1-aminium chloride] | 12.8 | 13.2 | 13.2 | 39.9 | 65 | 30 | 100 | moderate solubility | 100 % of 0 min | 102 % of 0 min | 108 % of 0 min | 100 % of 0 min | 95.8 % of 0 min | 97.8 % of 0 min | 2.35 | 9.82 |  |
